The target of test [1] is T1, HiBit-BRG1 fusion protein (Homo sapiens, UniProt P51532).
T1 construct: expressed in transfected cells
The test can be described thus: HiBiT-BRG1 cell-based degradation assay (Nano-Glo HiBiT Lytic Detection, 24 h). The note with it: HeLa cell line expressing HiBit-BRG1 and LgBit; for Dmax: read-out: BRG1 HiBit Degradation Maximum (%); for DC50: read-out: BRMG1 HiBit Degradation IC50. In outline:
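HeLa cells stably expressing HiBiT-BRG1 plus LgBit, 5000/well, treated 24 h, then lysed with Nano-Glo HiBiT lytic reagent and luminescence read. % degradation normalised between DMSO (high control) and 2 μM reference BRM/BRG1 degrader (low control).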

The next test concerns the target T2, HiBit-BRM fusion protein (Homo sapiens, UniProt P51531).
T2 construct: expressed in transfected cells
The test can be described thus: HiBiT-BRM cell-based degradation assay (Nano-Glo HiBiT Lytic Detection, 24 h). As to conditions: HeLa cell line expressing HiBiT-BRM; for DC50: read-out: BRM HiBit Degradation IC50. The method, boiled down: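 HeLa cells stably expressing HiBiT-BRM were dosed with compounds (10-point 3-fold dilutions, 30 μM final top dose, duplicate) for 24 h. HiBiT signal was read by lytic LgBiT complementation luminescence. Percent degradation was normalised to DMSO (high control) and 2 μM of a reference BRM/BRG1 degrader (low control).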

T1 sequence (P51532 whole entry, the tested form may be a part): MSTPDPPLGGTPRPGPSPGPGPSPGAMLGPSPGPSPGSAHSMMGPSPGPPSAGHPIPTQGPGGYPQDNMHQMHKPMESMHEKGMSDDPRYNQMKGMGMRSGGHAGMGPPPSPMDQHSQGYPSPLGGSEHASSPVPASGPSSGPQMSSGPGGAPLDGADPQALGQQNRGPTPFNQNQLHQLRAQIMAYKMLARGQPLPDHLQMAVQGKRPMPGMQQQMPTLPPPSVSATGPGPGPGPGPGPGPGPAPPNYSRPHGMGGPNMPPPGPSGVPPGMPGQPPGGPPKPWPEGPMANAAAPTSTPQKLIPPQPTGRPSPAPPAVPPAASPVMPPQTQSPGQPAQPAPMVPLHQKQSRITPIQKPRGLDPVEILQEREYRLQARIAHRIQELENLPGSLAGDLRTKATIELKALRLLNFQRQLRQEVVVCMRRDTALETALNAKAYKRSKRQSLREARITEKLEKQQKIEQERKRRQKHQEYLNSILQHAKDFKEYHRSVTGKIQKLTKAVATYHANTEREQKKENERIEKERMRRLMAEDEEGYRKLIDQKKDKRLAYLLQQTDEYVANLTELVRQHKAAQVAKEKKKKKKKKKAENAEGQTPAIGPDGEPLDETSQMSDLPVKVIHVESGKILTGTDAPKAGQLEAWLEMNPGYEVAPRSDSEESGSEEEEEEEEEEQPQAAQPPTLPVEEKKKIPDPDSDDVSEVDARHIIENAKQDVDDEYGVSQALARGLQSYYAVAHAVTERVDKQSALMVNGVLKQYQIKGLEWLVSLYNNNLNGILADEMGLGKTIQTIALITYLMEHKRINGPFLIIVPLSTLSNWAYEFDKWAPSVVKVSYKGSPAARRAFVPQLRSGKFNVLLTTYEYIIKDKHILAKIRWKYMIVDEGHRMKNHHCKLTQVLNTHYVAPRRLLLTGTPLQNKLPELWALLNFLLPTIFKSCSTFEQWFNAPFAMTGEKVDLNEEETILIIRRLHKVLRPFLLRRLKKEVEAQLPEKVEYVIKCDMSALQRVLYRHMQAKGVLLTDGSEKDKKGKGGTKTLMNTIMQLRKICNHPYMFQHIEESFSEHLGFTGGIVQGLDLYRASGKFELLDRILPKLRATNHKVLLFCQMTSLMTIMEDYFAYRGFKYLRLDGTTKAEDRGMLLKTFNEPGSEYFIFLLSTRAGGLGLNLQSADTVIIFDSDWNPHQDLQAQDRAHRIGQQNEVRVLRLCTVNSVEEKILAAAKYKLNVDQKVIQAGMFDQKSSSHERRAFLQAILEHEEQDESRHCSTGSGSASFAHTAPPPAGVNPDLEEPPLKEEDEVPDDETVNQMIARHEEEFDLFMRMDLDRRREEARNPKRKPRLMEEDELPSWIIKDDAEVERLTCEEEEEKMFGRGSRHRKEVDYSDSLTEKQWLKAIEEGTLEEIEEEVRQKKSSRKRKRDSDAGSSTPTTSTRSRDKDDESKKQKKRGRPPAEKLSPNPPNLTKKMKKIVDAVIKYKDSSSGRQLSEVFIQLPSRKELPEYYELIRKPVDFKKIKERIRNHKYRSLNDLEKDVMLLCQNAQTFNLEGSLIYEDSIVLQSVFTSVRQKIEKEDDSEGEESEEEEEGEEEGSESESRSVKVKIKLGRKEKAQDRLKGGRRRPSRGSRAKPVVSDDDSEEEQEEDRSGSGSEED
T2 sequence (P51531 whole entry, the tested form may be a part): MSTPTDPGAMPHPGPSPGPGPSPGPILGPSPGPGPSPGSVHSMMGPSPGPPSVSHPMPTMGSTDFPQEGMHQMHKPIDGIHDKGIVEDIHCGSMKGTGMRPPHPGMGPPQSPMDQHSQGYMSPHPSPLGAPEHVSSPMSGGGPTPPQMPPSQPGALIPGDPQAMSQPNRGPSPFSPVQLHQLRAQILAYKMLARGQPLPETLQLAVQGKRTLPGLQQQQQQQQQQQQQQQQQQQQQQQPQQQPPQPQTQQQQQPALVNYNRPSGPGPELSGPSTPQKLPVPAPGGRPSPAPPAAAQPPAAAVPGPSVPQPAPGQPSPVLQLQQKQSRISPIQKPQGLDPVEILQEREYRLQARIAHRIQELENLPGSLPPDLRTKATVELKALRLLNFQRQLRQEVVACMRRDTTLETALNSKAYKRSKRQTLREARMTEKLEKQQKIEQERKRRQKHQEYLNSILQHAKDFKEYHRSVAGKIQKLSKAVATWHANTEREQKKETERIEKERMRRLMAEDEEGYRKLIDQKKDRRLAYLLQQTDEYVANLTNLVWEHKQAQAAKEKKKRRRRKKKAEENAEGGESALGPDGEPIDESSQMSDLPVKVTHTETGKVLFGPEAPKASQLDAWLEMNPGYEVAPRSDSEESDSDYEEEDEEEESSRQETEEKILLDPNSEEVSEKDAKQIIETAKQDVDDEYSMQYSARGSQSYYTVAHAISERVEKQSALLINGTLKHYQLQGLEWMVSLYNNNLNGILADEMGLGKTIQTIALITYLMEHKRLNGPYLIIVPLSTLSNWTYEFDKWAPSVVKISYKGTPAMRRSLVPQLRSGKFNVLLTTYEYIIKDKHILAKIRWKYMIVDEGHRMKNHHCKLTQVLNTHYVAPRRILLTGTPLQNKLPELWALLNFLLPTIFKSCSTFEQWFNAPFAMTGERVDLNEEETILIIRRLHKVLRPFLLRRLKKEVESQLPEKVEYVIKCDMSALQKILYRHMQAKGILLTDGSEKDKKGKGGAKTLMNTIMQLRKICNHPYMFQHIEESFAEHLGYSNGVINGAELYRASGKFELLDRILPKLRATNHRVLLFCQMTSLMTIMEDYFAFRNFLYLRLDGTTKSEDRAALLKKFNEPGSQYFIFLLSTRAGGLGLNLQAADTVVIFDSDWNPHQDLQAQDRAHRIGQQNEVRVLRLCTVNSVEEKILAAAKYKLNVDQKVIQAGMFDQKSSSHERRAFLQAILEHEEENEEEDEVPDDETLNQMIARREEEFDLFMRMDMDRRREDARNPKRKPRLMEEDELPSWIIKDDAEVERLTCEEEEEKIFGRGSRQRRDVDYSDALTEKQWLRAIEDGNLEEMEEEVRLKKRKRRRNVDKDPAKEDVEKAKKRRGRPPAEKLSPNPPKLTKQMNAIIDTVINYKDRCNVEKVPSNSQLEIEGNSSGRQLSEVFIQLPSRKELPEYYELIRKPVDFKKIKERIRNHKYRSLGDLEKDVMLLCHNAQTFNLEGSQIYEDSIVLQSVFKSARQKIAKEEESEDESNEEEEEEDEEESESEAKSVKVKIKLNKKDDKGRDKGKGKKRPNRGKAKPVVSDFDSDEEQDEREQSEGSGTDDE

`Cc1ncsc1-c1ccc([C@H](C)NC(=O)C2C[C@@H](O)CN2C(=O)[C@@H](c2cc(OCCN3C[C@H]4C[C@@H](c5[nH]c6nnc(-c7ccccc7O)cc6c5C)C[C@H]4C3)no2)C(C)C)cc1` (single isomer, unassigned) [Compound 108]: in test [1], the Dmax is above 75% and the DC50 was above 10 nM. For the same compound, at HiBit-BRM fusion protein, the “BRM HiBit Degradation Maximum (%)” value is “A (“A” indicates maximum degradation ≥ 75%)” and the DC50 was below 10 nM.
For `Cc1ncsc1-c1ccc([C@H](C)NC(=O)[C@@H]2C[C@@H](O)CN2C(=O)[C@@H](c2cc(OCCN3CC(C(C)(C)c4cc5cc(-c6ccccc6O)nnc5[nH]4)C3)no2)C(C)C)cc1` (racemic) [Compound 289, (2S,4R)-4-hydroxy-1-((R)-2-(3-(2-(3-(2-(3-(2-hydroxyphenyl)-7H-pyrrolo[2,3-c]pyridazin-6-yl)propan-2-yl)azetidin-1-yl)ethoxy)isoxazol-5-yl)-3-methylbutanoyl)-N-((S)-1-(4-(4-methylthiazol-5-yl)phenyl)ethyl)pyrrolidine-2-carboxamide], the Dmax in test [1] was below 50%. In addition, at HiBit-BRM fusion protein, the “BRM HiBit Degradation Maximum (%)” value is recorded as “A (“A” indicates maximum degradation ≥ 75%)” and the DC50 is above 10 nM.
Regarding `Cc1ncsc1-c1ccc([C@H](C)NC(=O)[C@@H]2C[C@@H](O)CN2C(=O)[C@@H](c2cc(OCC(=O)N[C@H]3CCc4[nH]c5nnc(-c6ccccc6O)cc5c4C3)no2)C(C)C)cc1` (single isomer, unassigned) [Compound 168], the Dmax in test [1] is below 50%. Also, on HiBit-BRM fusion protein, the “BRM HiBit Degradation Maximum (%)” value is on record as “A (“A” indicates maximum degradation ≥ 75%)” and the DC50 was above 10 nM.
As for `Cc1ncsc1-c1ccc(CNC(=O)[C@@H]2C[C@@H](O)CN2C(=O)[C@@H](NC(=O)CCCC(=O)N2CC(c3cc4cc(-c5ccccc5O)nnc4[nH]3)C2)C(C)(C)C)cc1` [Compound 6, (2S,4R)-4-hydroxy-1-((S)-2-(5-(3-(3-(2-hydroxyphenyl)-7H-pyrrolo[2,3-c]pyridazin-6-yl)azetidin-1-yl)-5-oxopentanamido)-3,3-dimethylbutanoyl)-N-(4-(4-methylthiazol-5-yl)benzyl)pyrrolidine-2-carboxamide], in test [1], the Dmax was above 75% and the DC50 is above 1000 nM. For the same compound, at HiBit-BRM fusion protein, the “BRM HiBit Degradation Maximum (%)” value was “B (“B” indicates maximum degradation ≥ 50%)” and the DC50 is above 1000 nM.
As to `Cc1ncsc1-c1ccc(CNC(=O)[C@@H]2C[C@@H](O)CN2C(=O)[C@@H](NC(=O)CCCCCCCCCCCCC(=O)N2CC(c3c[nH]c4nnc(-c5ccccc5O)cc34)C2)C(C)(C)C)cc1` [Compound 44, (2S,4R)-4-hydroxy-1-((S)-2-(14-(3-(3-(2-hydroxyphenyl)-7H-pyrrolo[2,3-c]pyridazin-5-yl)azetidin-1-yl)-14-oxotetradecanamido)-3,3-dimethylbutanoyl)-N-(4-(4-methylthiazol-5-yl)benzyl)pyrrolidine-2-carboxamide], the Dmax in test [1] is below 50%. On HiBit-BRM fusion protein, the “BRM HiBit Degradation Maximum (%)” value is given as “C (“C” indicates maximum degradation < 50%)”.
`Cc1ncsc1-c1ccc([C@H](C)NC(=O)[C@@H]2C[C@@H](O)CN2C(=O)[C@@H](c2cc(C3CCN(Cc4cc5cc(-c6ccccc6O)nnc5[nH]4)CC3)no2)C(C)C)cc1` (racemic) [Compound 118, (2S,4R)-4-hydroxy-1-((R)-2-(3-(1-((3-(2-hydroxyphenyl)-7H-pyrrolo[2,3-c]pyridazin-6-yl)methyl)piperidin-4-yl)isoxazol-5-yl)-3-methylbutanoyl)-N-((S)-1-(4-(4-methylthiazol-5-yl)phenyl)ethyl)pyrrolidine-2-carboxamide]: the Dmax in test [1] is below 50%. On HiBit-BRM fusion protein, the “BRM HiBit Degradation Maximum (%)” value is given as “A (“A” indicates maximum degradation ≥ 75%)” and the DC50 is above 10 nM.
With `Cc1ncsc1-c1ccc([C@H](C)NC(=O)[C@@H]2C[C@@H](O)CN2C(=O)[C@@H](c2cc(OCCN3CC(c4cn(C(F)F)c5nnc(-c6ccccc6O)cc45)C3)no2)C(C)C)cc1` [Compound 116, (2S,4R)-1-((R)-2-(3-(2-(3-(7-(difluoromethyl)-3-(2-hydroxyphenyl)-7H-pyrrolo[2,3-c]pyridazin-5-yl)azetidin-1-yl)ethoxy)isoxazol-5-yl)-3-methylbutanoyl)-4-hydroxy-N-((S)-1-(4-(4-methylthiazol-5-yl)phenyl)ethyl)pyrrolidine-2-carboxamide], in test [1], the Dmax was below 50%. Moreover, the “BRM HiBit Degradation Maximum (%)” value on HiBit-BRM fusion protein was “C (“C” indicates maximum degradation < 50%)”.
Take `Cc1ncsc1-c1ccc([C@H](C)NC(=O)[C@@H]2C[C@@H](O)CN2C(=O)[C@H](c2cc(C3CN(C(=O)c4cc5cc(-c6ccccc6O)nnc5[nH]4)C3)no2)C(C)C)cc1` (single isomer, unassigned) [Compound 176]: the Dmax in test [1] is below 50%. Besides, on HiBit-BRM fusion protein, the “BRM HiBit Degradation Maximum (%)” value is listed as “C (“C” indicates maximum degradation < 50%)”.
As to `Cc1ncsc1-c1ccc([C@H](C)NC(=O)[C@@H]2C[C@@H](O)CN2C(=O)[C@@H](NC(=O)CCCCCCCCC(=O)N2CC(c3cc4cc(-c5ccccc5O)nnc4[nH]3)C2)C(C)(C)C)cc1` [Compound 1, (2S,4R)-4-hydroxy-1-((S)-2-(10-(3-(3-(2-hydroxyphenyl)-7H-pyrrolo[2,3-c]pyridazin-6-yl)azetidin-1-yl)-10-oxodecanamido)-3,3-dimethylbutanoyl)-N—((S)-1-(4-(4-methylthiazol-5-yl)phenyl)ethyl)pyrrolidine-2-carboxamide], in test [1], the Dmax was below 50%. On HiBit-BRM fusion protein, the “BRM HiBit Degradation Maximum (%)” value is “A (“A” indicates maximum degradation ≥ 75%)” and the DC50 was above 100 nM.
In the case of `Cc1ncsc1-c1ccc([C@H](C)NC(=O)[C@@H]2C[C@@H](O)CN2C(=O)[C@@H](c2cc(OCCN3CC(C4(C)CNc5nnc(-c6ccccc6O)cc54)C3)no2)C(C)C)cc1` (mixture of isomers) [Compound 134], the Dmax in test [1] is below 50%. The “BRM HiBit Degradation Maximum (%)” value on HiBit-BRM fusion protein is recorded as “C (“C” indicates maximum degradation < 50%)”.
As to `Cc1ncsc1-c1ccc([C@H](C)NC(=O)[C@@H]2C[C@@H](O)CN2C(=O)[C@@H](c2cc(OCCN3CC[C@@H](c4c[nH]c5nnc(-c6ccccc6O)cc45)C3)no2)C(C)C)cc1` (racemic) [Compound 262, (2S,4R)-4-hydroxy-1-((R)-2-(3-(2-((S)-3-(3-(2-hydroxyphenyl)-7H-pyrrolo[2,3-c]pyridazin-5-yl)pyrrolidin-1-yl)ethoxy)isoxazol-5-yl)-3-methylbutanoyl)-N-((S)-1-(4-(4-methylthiazol-5-yl)phenyl)ethyl)pyrrolidine-2-carboxamide], the Dmax in test [1] was below 50%. Also, at HiBit-BRM fusion protein, the “BRM HiBit Degradation Maximum (%)” value is recorded as “B (“B” indicates maximum degradation ≥ 50%)” and the DC50 is above 10 nM.
Regarding `Cc1ncsc1-c1ccc([C@H](C)NC(=O)[C@@H]2C[C@@H](O)CN2C(=O)C(c2cc(OCCN[C@]3(C(=O)O)CCc4[nH]c5nnc(-c6ccccc6O)cc5c4C3)no2)C(C)C)cc1` (single isomer, unassigned) [Compound 91], the Dmax in test [1] was below 50%. Further, the “BRM HiBit Degradation Maximum (%)” value on HiBit-BRM fusion protein was “C (“C” indicates maximum degradation < 50%)”.
On to `Cc1ncsc1-c1ccc([C@H](C)NC(=O)[C@@H]2C[C@@H](O)CN2C(=O)[C@@H](c2cc(OCCNC(=O)[C@H]3C[C@]4(Cc5cc(-c6ccccc6O)nnc5N4)C3)no2)C(C)C)cc1` (racemic) [Compound 71, (1S,3r)-N-(2-((5-((R)-1-((2S,4R)-4-hydroxy-2-(((S)-1-(4-(4-methylthiazol-5-yl)phenyl)ethyl)carbamoyl)pyrrolidin-1-yl)-3-methyl-1-oxobutan-2-yl)isoxazol-3-yl)oxy)ethyl)-3′-(2-hydroxyphenyl)-5′,7′-dihydrospiro[cyclobutane-1,6′-pyrrolo[2,3-c]pyridazine]-3-carboxamide], for which the Dmax in test [1] is below 50%. Besides, at HiBit-BRM fusion protein, the “BRM HiBit Degradation Maximum (%)” value was “A (“A” indicates maximum degradation ≥ 75%)” and the DC50 was above 100 nM.
For `Cc1ncsc1-c1ccc([C@H](C)NC(=O)[C@@H]2C[C@@H](O)CN2C(=O)[C@@H](c2cc(OCCN3CCC34CC(c3c[nH]c5nnc(-c6ccccc6O)cc35)C4)no2)C(C)C)cc1` (mixture of isomers) [Compound 151, (2S,4R)-4-hydroxy-1-((R)-2-(3-(2-(6-(3-(2-hydroxyphenyl)-7H-pyrrolo[2,3-c]pyridazin-5-yl)-1-azaspiro[3.3]heptan-1-yl)ethoxy)isoxazol-5-yl)-3-methylbutanoyl)-N-((S)-1-(4-(4-methylthiazol-5-yl)phenyl)ethyl)pyrrolidine-2-carboxamide], the Dmax in test [1] is below 50%. For the same compound, on HiBit-BRM fusion protein, the “BRM HiBit Degradation Maximum (%)” value is listed as “A (“A” indicates maximum degradation ≥ 75%)” and the DC50 is above 100 nM.
With `Cc1ncsc1-c1ccc(CNC(=O)[C@@H]2C[C@@H](O)CN2C(=O)[C@@H](c2cc(OCCN3CC(c4cc5cc(-c6ccccc6O)nnc5[nH]4)C3)no2)C(C)C)cc1` (single isomer, unassigned) [Compound 209], the Dmax in test [1] is below 50%. Further, on HiBit-BRM fusion protein, the “BRM HiBit Degradation Maximum (%)” value is recorded as “A (“A” indicates maximum degradation ≥ 75%)” and the DC50 was above 10 nM.
The like results for `Cc1ncsc1-c1ccc([C@H](C)NC(=O)[C@@H]2C[C@@H](O)CN2C(=O)[C@@H](c2cc(OCCN3CC(c4[nH]c5nnc(-c6ccccc6O)cc5c4Cl)C3)no2)C(C)C)cc1` (racemic) [Compound 238, (2S,4R)-1-[(2R)-2-[3-(2-{3-[5-chloro-3-(2-hydroxyphenyl)-7H-pyrrolo[2,3-c]pyridazin-6-yl]azetidin-1-yl}ethoxy)-1,2-oxazol-5-yl]-3-methylbutanoyl]-4-hydroxy-N-[(1S)-1-[4-(4-methyl-1,3-thiazol-5-yl)phenyl]ethyl]pyrrolidine-2-carboxamide] were, in that order, below 50%, “A (“A” indicates maximum degradation ≥ 75%)” and above 10 nM.

Values taken from US20240024488A1, “COMPOUNDS AND USES THEREOF” (Foghorn Therapeutics Inc., priority 2020, published 2024).
